Where two headings read alike, the source gives them in different places.
Columns and labels:
human MAO-B = molecular target: T1, human MAO-B (Homo sapiens, UniProt P27338); test: MAO-B inhibition assay; format: biochemical; conditions: for SI = IC50 of MAO-A/IC50 of MAO-B: selectivity index
T1 sequence (P27338 1-520): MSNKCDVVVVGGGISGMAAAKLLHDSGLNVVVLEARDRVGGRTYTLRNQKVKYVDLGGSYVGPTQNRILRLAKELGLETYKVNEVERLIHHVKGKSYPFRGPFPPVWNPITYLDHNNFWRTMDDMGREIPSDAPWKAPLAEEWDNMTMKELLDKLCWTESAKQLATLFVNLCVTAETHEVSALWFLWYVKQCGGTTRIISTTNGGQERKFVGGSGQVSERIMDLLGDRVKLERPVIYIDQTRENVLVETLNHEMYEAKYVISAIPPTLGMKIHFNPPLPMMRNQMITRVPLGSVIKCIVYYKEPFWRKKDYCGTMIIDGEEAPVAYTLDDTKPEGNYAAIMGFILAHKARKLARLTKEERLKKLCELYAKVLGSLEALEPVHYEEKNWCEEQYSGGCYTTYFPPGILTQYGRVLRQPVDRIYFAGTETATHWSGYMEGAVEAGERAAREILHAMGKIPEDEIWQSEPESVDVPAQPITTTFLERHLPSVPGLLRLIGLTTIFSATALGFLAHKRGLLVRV

human MAO-A = molecular target: T2, human MAO-A (Homo sapiens, UniProt P21397); test: MAO-A inhibition assay; format: biochemical
T2 sequence (P21397 1-527): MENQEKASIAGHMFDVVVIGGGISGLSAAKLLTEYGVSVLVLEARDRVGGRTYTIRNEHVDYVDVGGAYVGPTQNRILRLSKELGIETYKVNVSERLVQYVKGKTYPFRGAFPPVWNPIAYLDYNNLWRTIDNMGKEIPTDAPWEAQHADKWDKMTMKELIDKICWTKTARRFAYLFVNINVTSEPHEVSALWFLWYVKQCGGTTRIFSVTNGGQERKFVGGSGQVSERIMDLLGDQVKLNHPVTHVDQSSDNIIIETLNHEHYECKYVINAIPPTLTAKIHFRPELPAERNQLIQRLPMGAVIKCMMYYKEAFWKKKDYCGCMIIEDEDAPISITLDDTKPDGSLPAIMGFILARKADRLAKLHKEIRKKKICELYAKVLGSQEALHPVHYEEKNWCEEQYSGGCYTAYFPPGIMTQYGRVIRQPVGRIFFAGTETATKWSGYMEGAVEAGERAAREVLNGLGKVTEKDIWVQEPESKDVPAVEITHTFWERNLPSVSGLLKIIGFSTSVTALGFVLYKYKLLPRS

[1] = DPPH radical scavenging assay; conditions: read-out: IC50 (μM) ± SEM DPPH
eqBChE [2] = molecular target: T3, eqBChE (Equus caballus, UniProt P81908); test: Cholinesterase inhibition, Ellman's assay; conditions: read-out: IC50 (μM) ± SEM eqBChE; mean ± SEM; n = 3
T3 sequence (P81908 whole entry): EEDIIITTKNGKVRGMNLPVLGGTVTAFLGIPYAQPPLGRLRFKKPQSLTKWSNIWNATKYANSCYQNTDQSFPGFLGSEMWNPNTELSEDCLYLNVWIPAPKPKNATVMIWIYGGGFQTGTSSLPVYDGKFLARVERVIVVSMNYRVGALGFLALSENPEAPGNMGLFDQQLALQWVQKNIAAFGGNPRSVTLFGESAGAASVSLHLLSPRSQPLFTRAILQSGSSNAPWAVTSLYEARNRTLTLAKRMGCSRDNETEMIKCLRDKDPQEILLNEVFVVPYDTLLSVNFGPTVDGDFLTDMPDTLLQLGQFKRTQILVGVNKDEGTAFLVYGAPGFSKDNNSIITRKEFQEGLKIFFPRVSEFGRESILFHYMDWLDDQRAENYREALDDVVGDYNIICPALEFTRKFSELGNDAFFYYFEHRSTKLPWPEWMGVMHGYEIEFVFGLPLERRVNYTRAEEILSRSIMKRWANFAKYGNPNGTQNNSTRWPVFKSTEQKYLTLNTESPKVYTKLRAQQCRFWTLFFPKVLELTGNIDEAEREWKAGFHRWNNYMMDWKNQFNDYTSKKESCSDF

[3] = ABTS radical cation scavenging assay; conditions: read-out: IC50 (μM) ± SEM ABTS
eeAChE = eeAChE (Electrophorus electricus, UniProt O42275); test: Cholinesterase inhibition, Ellman's assay; format: biochemical, electric eel; conditions: for SI = IC50 of BChE/IC50 of AChE: selectivity index
Chain of eeAChE (O42275 24-633): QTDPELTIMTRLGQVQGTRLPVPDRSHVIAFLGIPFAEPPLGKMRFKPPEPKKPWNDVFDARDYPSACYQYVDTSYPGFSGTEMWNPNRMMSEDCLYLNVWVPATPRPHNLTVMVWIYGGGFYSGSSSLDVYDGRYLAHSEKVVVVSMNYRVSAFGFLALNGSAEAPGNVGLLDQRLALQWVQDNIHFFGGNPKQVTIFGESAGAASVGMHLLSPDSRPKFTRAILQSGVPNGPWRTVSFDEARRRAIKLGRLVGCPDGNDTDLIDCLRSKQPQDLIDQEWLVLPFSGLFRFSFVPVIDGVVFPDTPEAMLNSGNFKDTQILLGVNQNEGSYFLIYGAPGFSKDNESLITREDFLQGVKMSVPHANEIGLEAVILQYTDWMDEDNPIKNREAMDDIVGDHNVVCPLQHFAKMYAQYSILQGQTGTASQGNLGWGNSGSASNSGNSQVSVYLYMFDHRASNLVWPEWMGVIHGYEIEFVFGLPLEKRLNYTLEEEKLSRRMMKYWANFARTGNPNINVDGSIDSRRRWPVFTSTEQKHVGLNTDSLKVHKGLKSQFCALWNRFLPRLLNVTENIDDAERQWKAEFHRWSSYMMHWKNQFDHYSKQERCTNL

Aβ1–42 peptide = Aβ1–42 peptide (Homo sapiens, UniProt P05067); test: ThT fluorescence assay for self-mediated Aβ1–42 aggregation; format: biochemical; conditions: for inhibition of amyloid beta fibrils: after a 24-hour equimolar administration, ThT fluorescence (Fig. 4)
Chain of Aβ1–42 peptide (P05067 672-713): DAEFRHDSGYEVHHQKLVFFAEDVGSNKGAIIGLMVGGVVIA

eqBChE [4] = molecular target: T3, eqBChE; test: biochemical
COX-2 = molecular target: T4, COX-2 (Homo sapiens, UniProt P35354); test: biochemical
T4 sequence (P35354 18-604): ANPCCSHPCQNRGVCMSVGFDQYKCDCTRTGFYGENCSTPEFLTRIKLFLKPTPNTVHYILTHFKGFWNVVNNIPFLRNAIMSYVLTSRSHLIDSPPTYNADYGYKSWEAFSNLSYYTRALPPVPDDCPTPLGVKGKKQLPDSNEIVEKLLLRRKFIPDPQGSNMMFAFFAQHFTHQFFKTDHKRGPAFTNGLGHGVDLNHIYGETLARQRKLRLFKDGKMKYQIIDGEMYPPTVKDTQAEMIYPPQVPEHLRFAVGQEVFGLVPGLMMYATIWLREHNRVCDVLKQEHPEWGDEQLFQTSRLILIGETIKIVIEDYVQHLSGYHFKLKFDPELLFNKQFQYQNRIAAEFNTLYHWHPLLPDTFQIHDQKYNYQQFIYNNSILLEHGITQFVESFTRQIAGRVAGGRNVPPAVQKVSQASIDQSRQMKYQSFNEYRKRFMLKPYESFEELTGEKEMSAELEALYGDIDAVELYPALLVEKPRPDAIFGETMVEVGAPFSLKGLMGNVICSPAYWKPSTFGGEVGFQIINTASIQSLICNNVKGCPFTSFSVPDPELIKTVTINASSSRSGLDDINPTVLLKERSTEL

[5] = In vivo antioxidant potential in mice; conditions: 5 mg kg^−1, SOD, CAT, GSH
SH-SY5Y cells = test: SH-SY5Y neuroblastoma cell toxicity; format: cell-based, human; conditions: 10–100 μM, 48 h incubation, MTT
HEK-293 cells = test: Cell viability assay on normal human embryonic HEK-293 cells; format: cell-based; conditions: 1, 10, 20, 40 and 100 μM, MTT
[6] = Ferric ion reducing antioxidant power; conditions: μM equivalent to the standard antioxidant ascorbic acid
GSH-Px = test: In vivo GSH-Px activity in brain of mice; conditions: 5 mg kg^−1
MDA = test: In vivo MDA level in brain of mice; conditions: 5 mg kg^−1
CAT = test: In vivo CAT activity in brain of mice; conditions: high-test dose
SOD = test: In vivo SOD level in brain of mice; conditions: 5 mg kg^−1

SMILES | SI = IC50 of MAO-A/IC50 of MAO-B (human MAO-B) | IC50 [1] [µM] | IC50 [3] [µM] | SI = IC50 of BChE/IC50 of AChE (eeAChE) | IC50 (Aβ1–42 peptide) [µM] | inhibition of amyloid beta fibrils (Aβ1–42 peptide) | IC50 (eqBChE [4]) [µM] | IC50 (COX-2) [µM] | IC50 (human MAO-A) [µM] | in vivo antioxidant activity [5] | neurotoxicity / cytotoxicity on SH-SY5Y cells (SH-SY5Y cells) | cytotoxic effect on viability of HEK-293 cells (HEK-293 cells) | FRAP value [6] [µM] | IC50 (eeAChE) [µM] | IC50 (human MAO-B) [µM] | other results
COc1cc(/C=C/C(=O)Nc2nc3ccc(O)cc3s2)ccc1OCc1ccccc1 [Compound 22, (E)-3-(4-(Benzyloxy)-3-methoxyphenyl)-N-(6-hydroxybenzo[d]thi-azol-2-yl)acrylamide] | 55 | 16.33 ± 0.1 | 43.2 ± 1.34 | 217 |  |  |  |  |  |  |  |  |  |  |  | IC50 (human MAO-B; read-out: IC50 (μM) ± SEM MAO-B, mean ± SEM, n = 3): 0.348 ± 0.041 µM; IC50 (human MAO-A; read-out: IC50 (μM) ± SEM MAO-A, mean ± SEM, n = 3): 19.4 ± 1.1 µM; IC50 (eqBChE [2]): 37.4 ± 1.17 µM; IC50 (eeAChE; read-out: IC50 (μM) ± SEM eeAChE, mean ± SEM, n = 3): 0.172 ± 0.1 µM
O=C(/C=C/c1ccc(-c2ccccc2)cc1)Nc1nc2ccc(O)cc2s1 [Compound 23, (E)-3-([1,1′-Biphenyl]-4-yl)-N-(6-hydroxybenzo[d]thiazol-2-yl)acryl-amide] | 270 | 18.19 ± 0.11 | 12.1 ± 0.14 | 220 | 23.1 ± 1.05 | approximately 30% | 15.6 ± 0.901 | 14.4 ± 0.28 | 10 ± 0.5 | good to moderate in vivo antioxidant activity | did not show any apparent neurotoxicity | not showed in cytotoxic effect | 53.57 | 0.071 ± 0.1 |  | 
COc1cc(/C=C/C(=O)Nc2ccc(S(N)(=O)=O)cc2)ccc1OCc1ccccc1 [Compound 25, (E)-3-(4-(Benzyloxy)-3-methoxyphenyl)-N-(4-sulfamoylphenyl)acrylamide] | 426 | 25 ± 1.16 | 20.7 ± 1.11 | 17 | 14.1 ± 0.24 | ~50% | 14.1 ± 0.639 | 0.74 ± 0.13 | 28.2 ± 1.09 |  | did not show any apparent neurotoxicity | not showed in cytotoxic effect | 20.07 | 0.835 ± 0.1 | 0.066 ± 0.004 | 
NS(=O)(=O)c1ccc(NC(=O)/C=C/c2ccc(-c3ccccc3)cc2)cc1 [Compound 26, (E)-3-([1,1′-Biphenyl]-4-yl)-N-(4-sulfamoylphenyl)acrylamide] | 60 |  | 40.6 ± 1.11 | 1 | 19.52 ± 0.18 |  | 1.03 ± 0.031 | 2.19 ± 0.1 | 19.9 ± 1.17 |  |  | not showed in cytotoxic effect | 24.7 | 0.89 ± 0.1 | 0.327 ± 0.011 | 
O=C(Nc1nc2ccc(O)cc2s1)c1cc(O)c(O)c(O)c1 [Compound 28, 3,4,5-Trihydroxy-N-(6-hydroxybenzo[d]thiazol-2-yl)benzamide] | 46 | 1.77 ± 0.04 | 2.06 ± 0.11 | 6 | 11.29 ± 0.08 | around 60% | 9.25 ± 0.506 | 10.4 ± 0.13 | 10.1 ± 0.239 | good to moderate in vivo antioxidant activity | did not show any apparent neurotoxicity | not showed in cytotoxic effect | 45.24 | 1.48 ± 0.1 | 0.219 ± 0.34 | brain GSH-Px activity (GSH-Px): increases the antioxidant enzymatic activity of GSH-Px; MDA concentration in animal brains (MDA): 1.15 nmol/mL; CAT activity (CAT): 97 U mL^−1; brain's SOD level (SOD): 94.20 U mL^−1

From paper PMC10976477 (RSC Advances, 2024)
